Results on 18 compounds are retold here after ChEMBL document CHEMBL1124228, “Synthesis of (aryloxy)alkylamines. 1. Novel antisecretory agents with H+K+-ATPase inhibitory activity” (J Med Chem, 1988).

In general, IC50 refers to the midpoint of a concentration-inhibition curve. A high value points to weaker potency. The ED50 is the midpoint of the dose-response relation. What is called inhibition in vivo is the change of the read-out against control, counted positive when it falls. By inhibition is commonly meant the change of the read-out against control, counted positive when it falls.

For test [1], the target named is T1, Potassium-transporting ATPase (Homo sapiens, UniProt P20648). Kind of test: (§1) Antisecretory activity evaluated by the inhibition of 14C -AP uptake in isolated rabbit parietal cells stimulated by dibutyryl cyclic adenosine 3', 5' -monophosphate (dcAMP). In kind it is functional, Oryctolagus cuniculus.
For test [2], the species on record is Rattus norvegicus. Kind of test: Effective dose required for the inhibition of total acid secretion in pylorus-ligated rats. In kind it is functional.
Test [3] has as its target T1, Potassium-transporting ATPase. The test is described as follows: Antisecretory activity evaluated by the inhibition of 14C -AP uptake in isolated rabbit parietal cells stimulated by exogenous histamine. In kind it is functional, Oryctolagus cuniculus.
The subject of test [4] is Rattus norvegicus. The test is described as follows: Effective dose required for the inhibition of total acid secretion in pylorus-ligated rats at 20 mg/kg. In kind it is functional.
Test [5] addresses T2, Potassium-transporting ATPase (Homo sapiens, UniProt P20648+P51164). Kind of test: Evaluated for the inhibition of H+/K+ ATPase enzyme from fundic mucosa of white rabbits at 100 uM. In kind it is protein-complex assay. Conditions: Oryctolagus cuniculus, target entry is the homologue from another species.
Test [6] relates to Rattus norvegicus. Kind of test: Percent inhibition of total acid secretion in pylorus-ligated rats at an id dose of 40 mg/kg. In kind it is functional. Conditions: route intraduodenal.
The test system of test [7] is Rattus norvegicus. Kind of test: Percent inhibition of total acid secretion in pylorus-ligated rats at an id dose of 10 mg/kg. In kind it is functional. The settings on record: route intraduodenal.
For test [8], the system named is Rattus norvegicus. Kind of test: Percent inhibition of total acid secretion in pylorus-ligated rats at an id dose of 20 mg/kg. In kind it is functional. Conditions: route intraduodenal.
Test [9] deals with Rattus norvegicus. The test is described as follows: Effective dose required for the inhibition of total acid secretion in pylorus-ligated rats at 40 mg/kg. In kind it is functional.
For test [10], the target named is T2, Potassium-transporting ATPase. The test is described as §1. In kind it is functional, Oryctolagus cuniculus. Conditions: target entry is the homologue from another species.
The mark [11] stands for this setting: target entry is the homologue from another species.

T2 sequence (P20648 whole entry): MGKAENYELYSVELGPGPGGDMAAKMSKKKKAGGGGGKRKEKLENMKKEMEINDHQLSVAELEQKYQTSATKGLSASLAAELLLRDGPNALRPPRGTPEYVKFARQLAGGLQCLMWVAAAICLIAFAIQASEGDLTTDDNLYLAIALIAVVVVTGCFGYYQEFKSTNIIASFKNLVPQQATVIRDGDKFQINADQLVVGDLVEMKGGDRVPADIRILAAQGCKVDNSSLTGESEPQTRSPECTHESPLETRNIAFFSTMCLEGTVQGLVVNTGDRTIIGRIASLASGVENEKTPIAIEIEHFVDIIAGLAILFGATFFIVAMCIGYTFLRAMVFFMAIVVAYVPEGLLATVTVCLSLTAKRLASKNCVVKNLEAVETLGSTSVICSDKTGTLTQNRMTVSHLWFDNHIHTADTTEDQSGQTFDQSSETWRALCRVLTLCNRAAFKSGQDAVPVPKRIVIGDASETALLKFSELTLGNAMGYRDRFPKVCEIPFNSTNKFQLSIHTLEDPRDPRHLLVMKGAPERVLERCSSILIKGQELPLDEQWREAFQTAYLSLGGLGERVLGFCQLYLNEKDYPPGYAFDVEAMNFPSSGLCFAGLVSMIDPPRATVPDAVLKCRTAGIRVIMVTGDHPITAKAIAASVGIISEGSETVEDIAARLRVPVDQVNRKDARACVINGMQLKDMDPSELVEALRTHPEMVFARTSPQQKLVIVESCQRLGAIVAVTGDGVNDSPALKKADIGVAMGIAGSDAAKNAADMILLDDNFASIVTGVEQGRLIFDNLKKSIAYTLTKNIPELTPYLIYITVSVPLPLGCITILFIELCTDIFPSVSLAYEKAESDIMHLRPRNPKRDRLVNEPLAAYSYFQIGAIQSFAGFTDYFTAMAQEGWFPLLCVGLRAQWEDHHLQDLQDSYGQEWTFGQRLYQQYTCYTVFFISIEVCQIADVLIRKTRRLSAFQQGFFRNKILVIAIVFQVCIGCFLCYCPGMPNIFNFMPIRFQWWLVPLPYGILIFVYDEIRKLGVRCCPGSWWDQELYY
T2 sequence (P51164 whole entry): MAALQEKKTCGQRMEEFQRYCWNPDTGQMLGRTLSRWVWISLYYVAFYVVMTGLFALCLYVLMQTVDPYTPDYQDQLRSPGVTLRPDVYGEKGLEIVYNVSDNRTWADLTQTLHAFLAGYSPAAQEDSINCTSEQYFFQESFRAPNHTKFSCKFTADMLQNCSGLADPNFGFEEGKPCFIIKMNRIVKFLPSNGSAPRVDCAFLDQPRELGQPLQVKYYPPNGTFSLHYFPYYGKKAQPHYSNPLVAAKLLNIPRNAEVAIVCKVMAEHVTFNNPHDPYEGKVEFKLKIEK

As to `CN/C(=N\CCSCc1nc[nH]c1C)NC#N` [CIMETIDINE], the figures for the concentration for half-maximal inhibition (IC50) in test [1] and in [3] were above 100000 nM and 820 nM, respectively. The same compound showed an ED50 in the test listed under Rattus norvegicus [2] of 32 mg/kg.
As to `COc1ccc2[nH]c([S+]([O-])Cc3ncc(C)c(OC)c3C)nc2c1` (stereo not given) [OMEPRAZOLE], the ED50 in the test with Rattus norvegicus [4] amounted to 7.1 mg/kg.
Regarding `CCCCN(CCCC)CCCOc1ccc(-c2nc(-c3ccccc3)sc2C)cc1`, the IC50 in test [1] (setting [11]) was 230 nM; in test [3] (setting [11]) it was 270 nM. The inhibition in vivo at 20 mg/kg with Rattus norvegicus [4] was 36%. In test [5], the inhibition turned out to be 65%.
On to `CCCN(CCC)CCCOc1ccc(/C=C/c2nc3ccccc3s2)cc1`, for which the IC50 worked out at 140 nM in [1] (setting [11]) and 210 nM in test [3] (setting [11]). This compound showed an inhibition in vivo at 20 mg/kg in the test with Rattus norvegicus [4] of 42%.
Consider `CCCCN(CCCC)CCCOc1ccc(-c2csc(-c3ccccc3)n2)cc1.Cl`, for which 420 nM corresponded to half-maximal inhibition in test [1] (setting [11]) (IC50). In the test on Rattus norvegicus [4], this compound showed an ED50 of 17 mg/kg and an inhibition in vivo at 20 mg/kg of 75%. This compound also registered an IC50 in test [3] (setting [11]) of 450 nM.
On to `CCCN(CCC)CCCCOc1ccc(/C=C/c2nc3ccccc3s2)cc1.Cl.O`, for which the IC50 was found to be 120 nM in [1] (setting [11]) and 30 nM in test [3] (setting [11]). Moreover, in the test on Rattus norvegicus [6], at 40 mg/kg the inhibition in vivo was 93%. The same compound registered an ED50 in the test filed under Rattus norvegicus [2] of 13.6 mg/kg.
`Cl.O.c1ccc(-c2nc(-c3ccc(OCCCn4ccnc4)cc3)cs2)cc1` had a concentration for half-maximal inhibition (IC50) in [1] (setting [11]) of 20 nM. Further, in the test with Rattus norvegicus [4], the ED50 is 5.1 mg/kg and the inhibition in vivo at 20 mg/kg was found to be 91%. For the same compound, the IC50 in test [3] (setting [11]) turned out to be 80 nM.
For `CCCCN(CCCC)CCOc1ccc(/C=C/c2nc3ccccc3s2)cc1`, the values for the 50% inhibitory concentration (IC50) in test [1] (setting [11]) and in [3] (setting [11]) were 600 nM and 430 nM, respectively. Also, the inhibition in vivo at 20 mg/kg in the test with Rattus norvegicus [4] was 14%.
In the test on Rattus norvegicus [7], `c1ccc(-c2nc(-c3ccc(OCCCn4ccnn4)cc3)cs2)cc1` yielded an inhibition in vivo at 10 mg/kg of 72%. Also, inhibition in [3] (setting [11]) was half-maximal at 10000 nM (IC50).
For the compound `C(=C\c1nc2ccccc2o1)/c1ccc(OCCCn2ccnc2)cc1`, the IC50 stood at 250 nM in [1] (setting [11]) and 290 nM in test [3] (setting [11]). Further, the inhibition in vivo at 20 mg/kg in the test on Rattus norvegicus [4] amounted to 26%.
In the test with Rattus norvegicus [8], `CCCN(CCC)CCCCOc1ccc(/C=C/c2nc3ccccc3o2)cc1.Cl` came in with an inhibition in vivo at 20 mg/kg of 90%. For the same compound, the figures for the concentration for half-maximal inhibition (IC50) in test [1] (setting [11]) and in [3] (setting [11]) were 110 nM and 390 nM, respectively. In the test listed under Rattus norvegicus [2], this compound had a median effective dose (ED50) of 11.5 mg/kg.
`CCCN(CCC)CCCOc1ccc(-c2nc3ccccc3s2)cc1`: in the test with Rattus norvegicus [9], the inhibition in vivo at 40 mg/kg was found to be 42%. The concentration for half-maximal inhibition (IC50) in [1] (setting [11]) was 140 nM; in test [3] (setting [11]), 210 nM.
As to `c1ccc(-c2nc(-c3ccc(OCCCN4CCCC4)cc3)cs2)cc1`, the inhibition in vivo at 20 mg/kg with Rattus norvegicus [8] was determined as 36%. Further, the 50% inhibitory concentration (IC50) in test [10] is below 10000 nM; in test [3] (setting [11]), 390 nM.
As to `CCCCN(CCCC)CCCOc1ccc(/C=C/c2nc3ccccc3o2)cc1`, the half-inhibitory concentration (IC50) in test [1] (setting [11]) and in [3] (setting [11]) was 150 nM in each case. This compound also yielded an inhibition in vivo at 40 mg/kg with Rattus norvegicus [6] of 96%.
In the case of `CCCCN(CCCC)CCCCOc1ccc(/C=C/c2nc3ccccc3o2)cc1`, the figures for the 50% inhibitory concentration (IC50) in test [10] and in test [3] (setting [11]) were below 10000 nM and 180 nM, respectively. Further, at 40 mg/kg the inhibition in vivo in the test on Rattus norvegicus [6] was 14%.
On to `C(=C\c1nc2ccccc2s1)/c1ccc(OCCCCn2ccnc2)cc1`, for which the values for the IC50 in test [1] (setting [11]) and in [3] (setting [11]) were 260 nM and 200 nM, respectively. Moreover, the inhibition in vivo at 40 mg/kg in the test with Rattus norvegicus [6] stood at 17%.
Turning to `C(=C\c1nc2ccccc2o1)/c1ccc(OCCCCN2CCCC2)cc1`, the 50% inhibitory concentration (IC50) was 240 nM in [1] (setting [11]) and 170 nM in test [3] (setting [11]). Further, in the test on Rattus norvegicus [6], 40 mg/kg produced 24% inhibition in vivo.
On to `CNC(=C[N+](=O)[O-])NCCSCc1ccc(CN(C)C)o1` [RANITIDINE], for which, in the test on Rattus norvegicus [4], the ED50 stood at 9.1 mg/kg. In addition, it took 40 nM to reach half-maximal inhibition in test [3] (setting [11]) (IC50).
